PMC9818267, “Brain Natriuretic Peptide Protects Cardiomyocytes from Apoptosis and Stimulates Their Cell Cycle Re-Entry in Mouse Infarcted Hearts” (Cells, 2022)
No end group written: not given here.

Tests used:
cardiomyocytes (CMs) [1] = assay: Cardiomyocyte isolation (Langendorff-Free method) and counting; format: in vivo, mouse
Experimental: (§1) BNP was injected into infarcted adults, and unmanipulated neonatal and adult mice. Directly after surgery, NaCl (saline) or BNP (1.3 µg/20 g in 20 µL) was injected into the left ventricle cavity. At 24 h after MI, mice were intraperitoneal (ip) injected with BNP (2 µg/20 g mice) or saline every 2 days. C57BL/6 mice were sacrificed 1- and 14 days post-MI and Myh6 MerCreMer mice were sacrificed 14 days post-MI (Figure 1A). Neonatal C57BL/6 mice (3 days after birth) were injected ip with NaCl or BNP every two days (1 µg/2 g; Bachem; synthetic mouse BNP (1–45) peptide (catalog number H-7558)). Mice were sacrificed 11 days after birth (Figure 1B). Eight week old C57 BL/6 mice or Myh6 MerCreMer unmanipulated mice were injected ip with BNP (2 µg/20 g mice) or NaCl every two days (Figure 1C). Two weeks after the first injection, mice were sacrificed. To assess for the implication of the ERK signaling pathway in the BNP effect on CMs, PD0325901 (60 µg/20 g mice in 80 µL) was administered by gavage in adult unmanipulated mice 1 h before BNP injection (2 µg/20 g mice).
(§2) CM isolations were performed thanks to the Langendorff-Free method. […] Thereafter, the heart was removed from the chest and the left ventricle was perfused with enzymatic solution containing collagenase II (120 U/mL), collagenase IV (120 U/mL) (Worthington, Biochemical Corporation, USA) and protease XIV (0.05 mg/mL or 0.175 U/mL) (Sigma-Aldrich, Merck, Darmstadt, Germany). In each experiment, a full digestion of the heart was obtained. After digestion, cardiac cells were dissociated by gentle pipetting, filtered and collected after 25 min sedimentation. For infarcted hearts, the tissue was separated into the three zones (ZI, BZ and RZ). The three different areas were weighted before gentle pipetting.
Total CM cell numbers were counted before sedimentation by two different people and in blinded experiments. The CMs were easily identified based on their size and on Troponin I expression (for all experiments with flow cytometry analysis). Round and rod-shaped CMs were counted and their numbers related to the heart, to the mg of tissue and also to the control hearts (saline-injected hearts) always performed in parallel the same day than BNP-treated hearts (i.e., with the same digestion buffer).

cardiomyocytes (CMs) [2] = assay: qRT-PCR on CMs isolated from treated hearts; format: in vivo, mouse
Experimental: as §1, §2
qRT-PCR were performed using the SYBR Premix Ex Taq polymerase (Takara Bio Inc., Shiga, Japan) with the ViiA^TM7 Instrument (Applied Biosystems, Waltham, MA, USA). Total RNA was isolated from heart tissue, CM cell cultures and isolated CMs using TRI-Reagent (Zymo Research, Orange County, CA, USA). cDNA was synthesized from RNA using PrimeScript RT reagent kit (Takara Bio Inc.). Polymerase chain reactions (PCR) were performed using the SYBR Premix Ex Taq polymerase (Takara Bio Inc.) with the ViiA^TM7 Instrument (Applied Biosystems). Results were obtained after 40 cycles of a thermal step protocol consisting of an initial denaturation of 95 °C (1 s), followed by 60 °C (20 s) of elongation (α-skeletal actin has an elongation time of 30 s at 60 °C). The sequences of primers were reported in Supplementary File S2. All results were normalized with the 18S housekeeping gene (Δ CT values). Means of ΔΔ CT (Δ CTBNP–Δ CTsaline) values (versus untreated cells or NaCl treated mice) were calculated and results were represented as 2^−ΔΔCT. Statistics were performed on ΔΔ CT individual values. SEM fold increase was calculated using 2^−ΔΔ CT high values − 2^−means of ΔΔCT [13].

cleaved caspase-3 = assay: Western blot cleaved caspase-3 in infarct zone; format: in vivo, mouse; settings: ZI one day after MI, BNP vs saline
Description: At sacrifice, mice were weighted, the heart excised and weighted. The apex was embedded into OCT and slowly frozen for immunohistochemistry analysis. For quantitative RT-PCR (qRT-PCR) and/or Western blot analysis, the rest of the heart was quickly frozen in N2. Hearts from infarcted animals were separated into 3 zones for molecular and cellular analysis including CM isolation: (1) the infarction zone (ZI), (2) the border zone (BZ) and (3) the remote zone (RZ). The different areas were processed under microscopy: the ZI area is easily detectable by the color and the presence of the suture, the BZ corresponds to 0.5 mm tissue around the ZI and the rest of the heart is the RZ.
Total proteins were extracted from CMs isolated from adult infarcted and unmanipulated neonatal and adult hearts. Proteins were transferred to nitrocellulose membranes (Biorad) before incubation with primary antibodies overnight at 4 °C. Secondary antibodies were added 1 h at RT in the dark (Supplementary File S1). The signal was detected and quantified with the Odyssey infrared imaging system (LI-COR. Biosciences, Bad Homburg, Germany). All results were normalized to the tubulin protein level or to the total protein level thanks to stainings with the Revert 700 Total protein Stain (LI-COR).

[3] = Infarct size by echocardiography; format: in vivo, mouse; settings: two weeks after surgery
Description: To assess for the reproducibility of LAD occlusion, we measured the infarct size by echocardiography analysis (% of the MI length long axis). Two weeks after surgery, the infarct area represented 37 ± 2.5% of the LV in saline injected mice (n = 10) and 31.5 ± 4% in BNP-treated mice (n = 7).

cGMP = settings: BNP-treated infarcted mice, cited from earlier work
Experimental: In previous work, we followed the BNP kinetic by measuring the cGMP level in the hearts and plasma of BNP-treated infarcted mice. 30 min after BNP injections, the cGMP level is increased in the hearts of treated mice and returns to normal 1 h after injection. In the circulation of treated mice, cGMP level is increased from 1 h to 24 h after ...

[4] = CMs from border area of infarcted hearts, BNP vs saline
[5] = CMs from unmanipulated adult hearts, BNP vs saline

## Brain Natriuretic Peptide (SQGSTLRVQQRPQNSKVTHISSCFGHKIDRIGSVSRLGCNALKLL; not fully specified; ends and bridges not checked; UniProt P40753 77-121, looked up) [BNP, synthetic mouse BNP (1–45) peptide (Bachem, catalog number H-7558)]
Cardiomyocytes (CMs) [1]; BZ and RZ of infarcted hearts, BNP vs saline
  CM number per mg tissue: No change
Cardiomyocytes (CMs) [1]; BZ or RZ of infarcted hearts, BNP vs saline
  CM cell number per heart: No increase
Cardiomyocytes (CMs) [1]; ZI of infarcted hearts, BNP vs saline
  increase of number of CMs per mg tissue: 2 fold
Cardiomyocytes (CMs) [1]; ZI of infarcted hearts, same-day isolation with same enzymatic cocktail
  increase of number of CMs related to saline-injected littermates: 2.2 fold
Cardiomyocytes (CMs) [1]; infarct area (ZI) of infarcted adult hearts, BNP 2 µg/20 g ip every 2 days, vs saline
  increase of total number of CMs per heart: 81%
Cardiomyocytes (CMs) [1]; unmanipulated adult NPR-A −/− mice, saline n = 4, BNP n = 3
  CM cell number in NPR-A deficient hearts: did not change
Cardiomyocytes (CMs) [1]; unmanipulated adult hearts
  increase of number of CMs related to saline-injected littermates: 28.5%
Cardiomyocytes (CMs) [1]; unmanipulated adult hearts, BNP 2 µg/20 g ip every 2 days for 2 weeks, vs saline
  increase of total number of CMs per heart: 19%
Cardiomyocytes (CMs) [1]; unmanipulated adult hearts, BNP vs saline
  increase of number of CMs per mg tissue: 26%
Cardiomyocytes (CMs) [1]; unmanipulated adult mice, PD0325901 (60 µg/20 g) 1 h before each BNP injection, 2 weeks, n = 5 per group
  number of CMs in the presence of ERK inhibitor: did not increase
Cardiomyocytes (CMs) [1]; unmanipulated neonatal hearts
  increase of number of CMs related to saline-injected littermates: 23%
Cardiomyocytes (CMs) [1]; unmanipulated neonatal hearts, BNP 1 µg/2 g ip every 2 days from day 3, sacrifice day 11, vs saline
  increase of total number of CMs per heart: 18%
Cardiomyocytes (CMs) [1]; unmanipulated neonatal hearts, BNP vs saline
  increase of number of CMs per mg tissue: 44%
Cardiomyocytes (CMs) [2]; CMs from BZ of BNP-treated infarcted hearts, vs saline
  hearts with increased cyclin A2 and B2 mRNA in isolated CMs: 4 out of 8
Cardiomyocytes (CMs) [2]; CMs from RZ of BNP-treated infarcted hearts (data not shown)
  mRNA expression of myh7, acta1, hif1α: No difference
Cardiomyocytes (CMs) [2]; [4]
  acta1 mRNA level increase: 2 ×
  hif1α mRNA level increase: 1.4 ×
Cardiomyocytes (CMs) [2]; CMs from neonatal BNP-treated hearts, vs saline
  hif1α mRNA level increase: 1.5 ×
Cardiomyocytes (CMs) [2]; [5]
  acta1 mRNA level increase: 1.4 ×
  hif1α mRNA level increase: 1.8 ×
  myh7 mRNA level increase: 1.9 ×
Cardiomyocytes (CMs) [2]; CMs isolated from all neonatal BNP-treated hearts, vs saline
  mRNAs coding for cyclins E1, A2 or B2: increased levels
Cardiomyocytes (CMs) [2]; unmanipulated adult BNP-treated hearts, vs saline
  CM isolations with increased cyclin A2 or B2 mRNA: 5 out of 7
Cleaved caspase-3
  caspase 3 protein level change: −42%
[3]; BNP vs saline
  reduction of infarct size: 15%
[3]; BNP-treated n = 7, saline 37 ± 2.5% (n = 10)
  infarct area as % of the LV (% of the MI length long axis): 31.5 ± 4%
cGMP; 30 min after injection, returns to normal 1 h after injection
  cGMP level in the hearts: increased
cGMP; from 1 h to 24 h after injections
  cGMP level in the circulation: increased
